Holding throughout (format): biochemical
In experiment [1] the target is T1, HSepi (heparan sulfate glucuronyl C5-epimerase) (Homo sapiens, UniProt O94923).
T1 construct: gene GLCE; full-length, myc-HIS fusion
T1 sequence (O94923 1-617): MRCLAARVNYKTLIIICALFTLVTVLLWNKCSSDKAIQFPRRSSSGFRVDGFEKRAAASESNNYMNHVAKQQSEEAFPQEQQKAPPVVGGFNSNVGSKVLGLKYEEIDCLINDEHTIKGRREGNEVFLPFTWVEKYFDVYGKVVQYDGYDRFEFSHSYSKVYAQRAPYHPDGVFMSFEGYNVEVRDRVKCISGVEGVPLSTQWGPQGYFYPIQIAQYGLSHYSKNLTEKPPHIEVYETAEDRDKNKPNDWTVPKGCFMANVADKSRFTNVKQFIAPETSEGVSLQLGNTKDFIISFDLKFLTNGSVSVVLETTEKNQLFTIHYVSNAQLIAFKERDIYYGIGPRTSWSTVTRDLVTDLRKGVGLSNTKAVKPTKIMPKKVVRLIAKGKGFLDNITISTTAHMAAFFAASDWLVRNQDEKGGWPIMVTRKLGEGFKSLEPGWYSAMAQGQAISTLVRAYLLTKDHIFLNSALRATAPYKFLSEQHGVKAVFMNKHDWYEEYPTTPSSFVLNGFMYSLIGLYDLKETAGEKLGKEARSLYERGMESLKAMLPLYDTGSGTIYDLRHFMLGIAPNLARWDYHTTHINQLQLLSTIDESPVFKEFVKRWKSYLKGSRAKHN
Description: epimerase activity assay (3H release from [[…]-3H]-N-sulfated K5 polysaccharide) with recombinant enzyme.

Another experiment addresses T2, DS-epi1 (DS-epimerase 1) (Homo sapiens, UniProt Q9UL01).
T2 construct: gene DSE; truncated form (amino acid 23–775-HIS)
Description: epimerase activity assay (3H release from [[…]-3H]dK4) with recombinant enzyme; dialysis irreversibility test; Lineweaver-Burk kinetics.

Experiment [2] concerns the target T3, D4ST1 (DS 4-O-sulfotransferase 1) (Homo sapiens, UniProt Q8NCH0).
T3 construct: gene CHST14; D4ST1-HIS (amino acid 61–376)
T3 sequence (Q8NCH0 61-376): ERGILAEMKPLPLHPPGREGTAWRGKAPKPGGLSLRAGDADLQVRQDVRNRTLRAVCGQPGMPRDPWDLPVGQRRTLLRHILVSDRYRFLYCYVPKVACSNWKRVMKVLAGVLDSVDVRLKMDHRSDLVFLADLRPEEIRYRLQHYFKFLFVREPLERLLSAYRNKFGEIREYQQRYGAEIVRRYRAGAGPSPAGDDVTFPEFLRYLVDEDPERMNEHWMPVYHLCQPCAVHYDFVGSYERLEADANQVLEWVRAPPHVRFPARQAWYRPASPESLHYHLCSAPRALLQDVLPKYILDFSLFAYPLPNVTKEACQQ
As to the kind of experiment: sulfotransferase activity assay ([…]PAPS incorporation) with recombinant enzyme.

Here are results for one compound from paper PMC8600295, “Inhibition of iduronic acid biosynthesis by ebselen reduces glycosaminoglycan accumulation in mucopolysaccharidosis type I fibroblasts” (Glycobiology, 2021).

Regarding `O=c1c2ccccc2[se]n1-c1ccccc1` [ebselen, 2-phenyl-1,2-benzoisoselenazol-3(2H)-one], the figures for the IC50 (in experiment [1]; at DS-epi1 (DS-epimerase 1); in experiment [2]) were 800 nM, 7000 nM and 1500 nM, respectively.
